From patent publication US8048895B2, “Kappa opioid receptor ligands” (priority 2008, dated 2011)

Legend:
Format in all cases: biochemical
[1] = biological target: T1, cloned human κ opioid receptor (Homo sapiens, UniProt P41145); assay: Inhibition of U69,593-stimulated [35S]GTPγS binding
T1 construct: expressed in transfected cells
Source text: (§1) Measures of opioid receptor antagonism and specificity were obtained by monitoring the ability of selected test compounds to inhibit stimulation of [^35S]GTPγS binding produced by the selective agonists (D-Ala^2, MePhe^4, Gly-ol^5)enkephalin (DAMGO, mu receptor), cyclo[D-Pen^2, D-Pen^5]enkephalin (DPDPE, delta) and 5,7,8-(−)-N-methyl-N-[7-(1-pyrrolidinyl)-1-oxaspiro[4,5]dec-8-yl]benzeneacetamide (U69,593, kappa) in cloned human receptors, Table 1.

[2] = biological target: T2, cloned human μ opioid receptor (Homo sapiens, UniProt P35372); assay: Inhibition of DAMGO-stimulated [35S]GTPγS binding
T2 construct: expressed in transfected cells
Source text: as §1

[3] = biological target: T3, cloned human δ opioid receptor (Homo sapiens, UniProt P41143); assay: Inhibition of DPDPE-stimulated [35S]GTPγS binding; details: read-out: δ, DPDPE Ke
T3 construct: expressed in transfected cells
Source text: as §1

T1 sequence (P41145 whole entry): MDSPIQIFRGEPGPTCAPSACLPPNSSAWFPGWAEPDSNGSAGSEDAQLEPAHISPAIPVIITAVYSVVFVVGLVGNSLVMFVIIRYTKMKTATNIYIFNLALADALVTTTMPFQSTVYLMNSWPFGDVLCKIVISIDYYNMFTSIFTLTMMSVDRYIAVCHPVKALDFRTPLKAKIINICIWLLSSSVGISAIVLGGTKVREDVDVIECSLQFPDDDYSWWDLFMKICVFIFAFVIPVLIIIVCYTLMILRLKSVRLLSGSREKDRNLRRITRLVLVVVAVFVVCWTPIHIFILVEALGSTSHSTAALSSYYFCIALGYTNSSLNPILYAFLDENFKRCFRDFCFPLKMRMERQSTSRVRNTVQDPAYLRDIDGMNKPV
T2 sequence (P35372 whole entry): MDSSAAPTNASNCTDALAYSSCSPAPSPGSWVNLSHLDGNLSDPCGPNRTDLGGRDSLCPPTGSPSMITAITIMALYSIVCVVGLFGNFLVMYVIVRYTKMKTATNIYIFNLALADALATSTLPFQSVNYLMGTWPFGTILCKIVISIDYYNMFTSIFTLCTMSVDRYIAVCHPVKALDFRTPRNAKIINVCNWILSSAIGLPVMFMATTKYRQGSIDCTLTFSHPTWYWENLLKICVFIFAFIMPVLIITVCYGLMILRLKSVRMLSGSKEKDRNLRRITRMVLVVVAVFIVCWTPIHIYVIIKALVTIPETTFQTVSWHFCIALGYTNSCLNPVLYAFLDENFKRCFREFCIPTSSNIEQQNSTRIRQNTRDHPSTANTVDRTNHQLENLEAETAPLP
T3 sequence (P41143 whole entry): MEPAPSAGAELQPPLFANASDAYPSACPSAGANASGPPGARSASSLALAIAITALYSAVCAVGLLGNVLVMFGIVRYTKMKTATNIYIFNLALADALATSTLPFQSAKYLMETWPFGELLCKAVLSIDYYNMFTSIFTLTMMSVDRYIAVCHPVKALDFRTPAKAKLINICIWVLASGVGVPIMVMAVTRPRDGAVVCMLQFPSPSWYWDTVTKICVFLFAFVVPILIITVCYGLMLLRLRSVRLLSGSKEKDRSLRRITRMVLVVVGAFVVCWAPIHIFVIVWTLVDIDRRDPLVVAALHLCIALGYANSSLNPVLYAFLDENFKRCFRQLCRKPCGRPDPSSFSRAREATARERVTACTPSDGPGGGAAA

Q: CC(C)[C@@H](CN1CC[C@@](C)(c2cccc(O)c2)[C@@H](C)C1)NC(=O)[C@@]1(C)Cc2ccc(O)cc2CN1 [RTI-5989-240, (3R)-7-Hydroxy-N-[(1S)-1-{[(3R,4R)-4-(3-hydroxyphenyl)-3,4-dimethylpiperidin-1-yl]methyl}-2-methylpropyl]-3-methyl-1,2,3,4-tetrahydroisoquinoline-3-carboxamide] was tested. Which Kb [1] did it give?
A: 0.03 nM

Q: What about the “potency for the kappa opioid receptor (in words)” value ([1]; [35S]GTPγS in vitro functional assay) of the same compound?
A: high potency

Q: What about the “selectivity for the kappa opioid receptor relative to mu and delta (in words)” value ([1]; functional assay) of the same compound?
A: highly selective

Q: What about the “κ, U69,593 Ke” value ([1]; inhibition of U69,593-stimulated [35S]GTPγS binding, cloned human κ receptor) of the same compound?
A: 0.03 nM

Q: And the δ/κ ([1]; ratio of Ke values, δ over κ)?
A: 28,000

Q: What about the μ/κ ([1]; ratio of Ke values, μ over κ) of the same compound?
A: 120

Q: And the Kb [2]?
A: 3.6 nM

Q: And the “μ, DAMGO Ke” value ([2]; inhibition of DAMGO-stimulated [35S]GTPγS binding, cloned human μ receptor)?
A: 3.6 nM

Q: What about the Kb [3] of the same compound?
A: 840 nM
